Measured values taken from patent US11053204B2, “Pyrimidinyloxy benzene derivatives as herbicides” (FMC Corporation, priority 2015, dated 2021).

Legend:
Type in all cases: in vivo
[1] = system: Italian ryegrass (Lolium multiflorum); test: Test A preemergence, visual injury rating
Method in brief: (§1)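 Visual injury scored 0–100 (100 = complete control) against untreated controls about 10 days after treatment in a greenhouse. Test chemicals, formulated with surfactant in non-phytotoxic solvent, were sprayed on soil preemergence or on 2-10 cm, one- to two-leaf plants postemergence.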

[2] = system: barnyardgrass (Echinochloa crus-galli); test: Test A preemergence, visual injury rating
Method in brief: as §1

[3] = system: giant foxtail (Setaria faberii); test: Test A preemergence, visual injury rating
Method in brief: as §1

kochia (Kochia scoparia) [4] = test: Test A preemergence, visual injury rating
Method in brief: as §1

[5] = system: pigweed (Amaranthus retroflexus); test: Test A preemergence, visual injury rating
Method in brief: as §1

[6] = system: ragweed (common ragweed, Ambrosia elatior); test: Test A preemergence, visual injury rating
Method in brief: as §1

[7] = system: Italian ryegrass (Lolium multiflorum); test: Test A postemergence, visual injury rating
Method in brief: as §1

[8] = system: barnyardgrass (Echinochloa crus-galli); test: Test A postemergence, visual injury rating; details: 0 to 100 scale, 0 is no effect, 100 is complete control, approximately 10 days
Method in brief: as §1

[9] = system: blackgrass (Alopecurus myosuroides); test: Test A postemergence, visual injury rating
Method in brief: as §1

corn (Zea mays) = test: Test A postemergence, visual injury rating
Method in brief: as §1

[10] = system: galium (catchweed bedstraw, Galium aparine); test: Test A postemergence, visual injury rating
Method in brief: as §1

[11] = system: giant foxtail (Setaria faberii); test: Test A postemergence, visual injury rating
Method in brief: as §1

kochia (Kochia scoparia) [12] = test: Test A postemergence, visual injury rating
Method in brief: as §1

[13] = system: pigweed (Amaranthus retroflexus); test: Test A postemergence, visual injury rating
Method in brief: as §1

[14] = system: ragweed (common ragweed, Ambrosia elatior); test: Test A postemergence, visual injury rating
Method in brief: as §1

[15] = system: wheat (Triticum aestivum); test: Test A postemergence, visual injury rating
Method in brief: as §1

[16] = system: barnyardgrass (Echinochloa crus-galli); test: Test B flooded paddy test, plant response rating; details: 250 g ai/ha; Flood; scale of 0 to 100 where 0 is no effect and 100 is complete control; 13 to 15 days
Method in brief: (§2)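 Compound was added to standing water 3 cm above soil, flood maintained, and plants held in a greenhouse before visual scoring against controls at 13 to 15 days.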

[17] = system: ducksalad (Heteranthera limosa); test: Test B flooded paddy test, plant response rating; details: 250 g ai/ha; Flood; scale of 0 to 100 where 0 is no effect and 100 is complete control; 13 to 15 days
Method in brief: as §2

rice (Oryza sativa) = test: Test B flooded paddy test, plant response rating; details: 250 g ai/ha; Flood; scale of 0 to 100 where 0 is no effect and 100 is complete control; 13 to 15 days
Method in brief: as §2

[18] = system: sedge, umbrella (small-flower umbrella sedge, Cyperus difformis); test: Test B flooded paddy test, plant response rating; details: 250 g ai/ha; Flood; scale of 0 to 100 where 0 is no effect and 100 is complete control; 13 to 15 days
Method in brief: as §2

[19] = 31 g ai/ha, 0 to 100 scale, 0 no effect, 100 complete control
[20] = 125 g ai/ha, 0 to 100 scale (0 no effect, 100 complete control)
[21] = 31 g ai/ha, 0 to 100 scale (0 no effect, 100 complete control)
[22] = 125 g ai/ha, 0 to 100 scale, 0 is no effect, 100 is complete control, approximately 10 days

Row | Structure (SMILES) | Plant response rating, Ryegrass, Italian [1, 19] | Plant response rating, Ryegrass, Italian [1, 20] | Plant response rating, Barnyardgrass [2, 19] | Plant response rating, Barnyardgrass [2, 20] | Plant response rating, Foxtail, Giant [3, 19] | Plant response rating, Foxtail, Giant [3, 20] | Plant response rating, Kochia (kochia (Kochia scoparia) [4]; [19]) | Plant response rating, Kochia (kochia (Kochia scoparia) [4]; [20]) | Plant response rating, Pigweed [5, 19] | Plant response rating, Pigweed [5, 20] | Plant response rating, Ragweed [6, 19] | Plant response rating, Ragweed [6, 20] | Ryegrass, Italian plant response rating [7, 21] | Ryegrass, Italian plant response rating [7, 22] | Barnyardgrass plant response rating ([8]; 31 g ai/ha) | Barnyardgrass plant response rating ([8]; 125 g ai/ha) | Blackgrass plant response rating [9, 21] | Blackgrass plant response rating [9, 22] | Corn plant response rating (corn (Zea mays); [21]) | Corn plant response rating (corn (Zea mays); [22]) | also measured
1 | CCCCC(C#N)c1ccccc1Oc1ncc(Cl)cn1 (stereo not drawn) [Compound 129] | 20 | 60 | 70 | 100 | 100 | 100 | 30 | 100 | 90 | 100 | 0 | 0 | 0 | 60 | 20 | 100 | 20 | 80 | 20 | 20 | Galium plant response rating [10, 21]: 30; Galium plant response rating [10, 22]: 90; Foxtail, Giant plant response rating [11, 21]: 20; Foxtail, Giant plant response rating [11, 22]: 100; Kochia plant response rating (kochia (Kochia scoparia) [12]; [21]): 40; Kochia plant response rating (kochia (Kochia scoparia) [12]; [22]): 100; Pigweed plant response rating [13, 21]: 20; Pigweed plant response rating [13, 22]: 70; Ragweed plant response rating [14, 21]: 0; Ragweed plant response rating [14, 22]: 0; Wheat plant response rating [15, 21]: 0; Wheat plant response rating [15, 22]: 10; Plant response rating, Barnyardgrass [16]: 45; Plant response rating, Ducksalad [17]: 90; Plant response rating, Rice (rice (Oryza sativa)): 40; Plant response rating, Sedge, Umbrella [18]: 80
2 | N#Cc1cccc(Oc2ncc(Cl)cn2)c1COCC(F)(F)F [Compound 131] | 0 | 20 | 0 | 100 | 0 | 90 | 10 | 100 | 90 | 100 | 0 | 0 | 0 | 20 | 0 | 10 | 0 | 0 | 20 | 30 | Galium plant response rating [10, 21]: 20; Galium plant response rating [10, 22]: 50; Foxtail, Giant plant response rating [11, 21]: 0; Foxtail, Giant plant response rating [11, 22]: 20; Kochia plant response rating (kochia (Kochia scoparia) [12]; [21]): 40; Kochia plant response rating (kochia (Kochia scoparia) [12]; [22]): 90; Pigweed plant response rating [13, 21]: 50; Pigweed plant response rating [13, 22]: 80; Ragweed plant response rating [14, 21]: 0; Ragweed plant response rating [14, 22]: 0; Wheat plant response rating [15, 21]: 0; Wheat plant response rating [15, 22]: 20; Plant response rating, Barnyardgrass [16]: 15; Plant response rating, Ducksalad [17]: 80; Plant response rating, Rice (rice (Oryza sativa)): 15; Plant response rating, Sedge, Umbrella [18]: 90
3 | N#Cc1cccc(Oc2ncc(Cl)cn2)c1COCC(F)(F)C(F)(F)F [Compound 132] | 0 | 30 | 30 | 100 | 40 | 100 | 10 | 60 | 70 | 100 | 0 | 0 | 0 | 0 | 30 | 50 | 0 | 30 | 20 | 30 | Galium plant response rating [10, 21]: 20; Galium plant response rating [10, 22]: 60; Foxtail, Giant plant response rating [11, 21]: 30; Foxtail, Giant plant response rating [11, 22]: 50; Kochia plant response rating (kochia (Kochia scoparia) [12]; [21]): 40; Kochia plant response rating (kochia (Kochia scoparia) [12]; [22]): 70; Pigweed plant response rating [13, 21]: 60; Pigweed plant response rating [13, 22]: 90; Ragweed plant response rating [14, 21]: 0; Ragweed plant response rating [14, 22]: 0; Wheat plant response rating [15, 21]: 0; Wheat plant response rating [15, 22]: 20; Plant response rating, Barnyardgrass [16]: 45; Plant response rating, Ducksalad [17]: 90; Plant response rating, Rice (rice (Oryza sativa)): 45; Plant response rating, Sedge, Umbrella [18]: 80
4 | N#Cc1cccc(Oc2ncc(Cl)cn2)c1C(=O)CCCC(F)(F)F [Compound 133] | 0 | 0 | 0 | 30 | 0 | 90 | 0 | 10 | 70 | 100 | 0 | 0 | 0 | 0 | 10 | 30 | 0 | 0 | 0 | 20 | Galium plant response rating [10, 21]: 30; Galium plant response rating [10, 22]: 50; Foxtail, Giant plant response rating [11, 21]: 10; Foxtail, Giant plant response rating [11, 22]: 30; Kochia plant response rating (kochia (Kochia scoparia) [12]; [21]): 0; Kochia plant response rating (kochia (Kochia scoparia) [12]; [22]): 20; Pigweed plant response rating [13, 21]: 30; Pigweed plant response rating [13, 22]: 50; Ragweed plant response rating [14, 21]: 0; Ragweed plant response rating [14, 22]: 0; Wheat plant response rating [15, 21]: 0; Wheat plant response rating [15, 22]: 0; Plant response rating, Barnyardgrass [16]: 0; Plant response rating, Ducksalad [17]: 0; Plant response rating, Rice (rice (Oryza sativa)): 30; Plant response rating, Sedge, Umbrella [18]: 0
5 | CCc1cccc(Oc2ncc(Cl)cn2)c1CCCCC(F)(F)F [Compound 134] | 0 | 20 | 0 | 80 | 10 | 90 | 0 | 10 | 0 | 50 | 0 | 0 | 0 | 10 | 0 | 20 | 10 | 20 | 10 | 10 | Galium plant response rating [10, 21]: 10; Galium plant response rating [10, 22]: 40; Foxtail, Giant plant response rating [11, 21]: 10; Foxtail, Giant plant response rating [11, 22]: 20; Kochia plant response rating (kochia (Kochia scoparia) [12]; [21]): 20; Kochia plant response rating (kochia (Kochia scoparia) [12]; [22]): 60; Pigweed plant response rating [13, 21]: 40; Pigweed plant response rating [13, 22]: 80; Ragweed plant response rating [14, 21]: 0; Ragweed plant response rating [14, 22]: 10; Wheat plant response rating [15, 21]: 0; Wheat plant response rating [15, 22]: 10; Plant response rating, Barnyardgrass [16]: 0; Plant response rating, Ducksalad [17]: 95; Plant response rating, Rice (rice (Oryza sativa)): 20; Plant response rating, Sedge, Umbrella [18]: 95
